Laboratory results as given in PubChem BioAssay AID179 (DTP/NCI, 2004).
The source made the active and inactive calls.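 The calls were made as follows: active = compounds giving half or more protection of infected cells from virus-caused growth loss, again on retest; inactive = the rest.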 *1 amine or outer side, *2 acyl side, *3 side chain or, on linkers, in order; H or OH if unused. Where a SMILES comes first, the peptide text is derived from it. CO = O=C([*:1])[*:2]

Tested on: CEM cells HIV-1 protection, formazan growth assay
Assay: NCI AIDS Antiviral Assay
Settings: for IC50: measured here: growth of uninfected CEM cells
Summary of the method: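 Protection of CEM cells against HIV-1 was scored from cell growth (soluble formazan) across five concentrations, with parallel uninfected cells. Lack of protection may reflect toxicity.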

SMILES	EC50	IC50	outcome
O=S(Cc1ccccc1)c1ccccc1Cn1cccc1 (stereo not drawn)	> 200 µM	158 µM	–
O=C(Nc1nc(=S)[nH][nH]1)C(=O)C(c1cnc2ccc([N+](=O)[O-])cc2n1)[N+](=O)[O-] (stereo not drawn)	> 447 µM	79.4 µM	–
NC(=O)c1nc2ccccc2nc1Nc1ccc(Cl)cc1Cl	> 1.58 µM	> 1.58 µM	–
[N-]=[N+]=C1CNC(=O)NC1=O	> 200 µM	30.2 µM	–
COC(=O)C1(Cc2ccc3c(c2)CCC3)Cc2ccccc2C1O (stereo not drawn)	> 200 µM	26.9 µM	–
CC1=C(C(=O)NNC(=O)C[n+]2ccccc2)CC(C(=O)NNC(=O)C[n+]2ccccc2)=C(C)N1	> 200 µM	> 200 µM	–
CCCCc1ccc2[n+](c1)C(C(=O)OCC)=PC2 (stereo not drawn)	> 178 µM	145 µM	–
COC(=O)[C@H](Cc1ccccc1)NC(=O)N[C@@H](C)C(=O)N[C@H](C(=O)N[C@H](C=O)Cc1ccccc1)C(C)C ({OMe-Phe-CO}-Ala-Val-Phe-aldehyde)	> 200 µM	4.79 µM	–
CCC1NCC(=O)c2c1[nH]c1ccccc21 (stereo not drawn)	–	–	inactive
COc1cc(OC)cc(-n2c(N)c(-c3nc4ccccc4n3C)c3ccc([N+](=O)[O-])cc3c2=O)c1	> 200 µM	> 200 µM	–
O=C(Nc1nc2c(ncn2C2OC(CO)C(O)C2O)c(=O)[nH]1)c1ccccc1 (stereo not drawn)	> 646 µM	251 µM	–
CN1CC[C@]2(C)c3cc(O)ccc3CC3CCCC1C32C (stereo partly drawn)	–	–	inactive
Cc1cccnc1NC(=S)Nc1ccccc1Cl	> 200 µM	0.813 µM	–
CCCC1(c2ccccc2)Oc2ccccc2-n2cccc2C1=O (stereo not drawn)	> 200 µM	40.7 µM	–
O=C1/C(=C/c2ccccc2)CCC/C1=C\c1ccc(O)c(CN2CCCCC2)c1	> 200 µM	1.17 µM	–
CCOC(=O)C1N(S(=O)(=O)c2ccc(C)cc2)CCC12c1ccccc1NC2c1ccc(OC)c(OC)c1 (stereo not drawn)	–	–	inactive
Cc1cc(S(=O)(=O)Nc2nncn2-c2ccc(Cl)cc2)c(S)cc1Cl	–	–	inactive
COc1cc([N+](=O)[O-])ccc1NC(=O)C(F)(F)F	> 200 µM	57.5 µM	–
c1cc2c(cc1NC1=NCCO1)CCCC2	> 200 µM	1.55 µM	–
Cc1nc(Nc2ccc(Cl)cc2)sc1C(=O)NNC(=O)C(=O)NN	> 19.5 µM	> 19.5 µM	–
c1cc(-c2cn3ccsc3n2)ccn1	> 447 µM	186 µM	–
CCN(CC)CCC12CC(C)OC1=Nc1ccccc1NC2=O (stereo not drawn)	> 200 µM	> 200 µM	–
[O-][n+]1ccccc1CCN(O)Cc1ccccc1	> 200 µM	> 200 µM	–
Nc1ccc(S(=O)(=O)NCCSSCCNS(=O)(=O)c2ccc(N)cc2)cc1	> 200 µM	45.7 µM	–

SMILES	EC50	IC50	outcome
CO[C@@H]1C[C@H]2[C@@H]3CC[C@H]([C@H](C)COC(C)=O)[C@@]3(C)CC[C@@H]2[C@@]2(C)CC[C@H]3C[C@]312	> 100 µM	> 100 µM	–
CC1(O)C(=O)N(Cc2ccccc2)c2ccccc21 (stereo not drawn)	> 141 µM	> 141 µM	–
O=C1c2ccccc2C(=O)c2sc(Nc3ccc(Cl)c(Cl)c3)nc21	> 19.1 µM	15.8 µM	–
O=C1OC(=O)C2=C1C(c1cccs1)C=C(c1cccnc1)N2c1ccncc1 (stereo not drawn)	> 200 µM	9.77 µM	–
COc1ncc(/C=C2\OC(=O)c3ccccc32)c(OC)n1	> 200 µM	> 200 µM	–
O=C1C(Cl)C(c2ccccc2O)N1n1cnc2ccccc2c1=O (stereo not drawn)	> 14.5 µM	> 14.5 µM	–
CC1(C)CC(O)C2=C(O1)C(=O)c1ncccc1C2=O (stereo not drawn)	–	–	inactive
COc1cc(/C=C(\C#N)c2ccccn2)cc(Br)c1O	> 200 µM	28.2 µM	–
CC(C)(C)NC(=S)N/N=C/c1ccccn1	> 0.2 µM	0.0288 µM	–
CCOC(=O)c1sc2nc(SC)nc3c2c1NCN3C1CC1	> 100 µM	> 100 µM	–
CC1C2CC(C(S(=O)(=O)N3CCOCC3)/C2=N\O)C1(C)C (stereo not drawn)	> 200 µM	195 µM	–
c1ccc2c(c1)cc1n2CC2CN=NC12 (stereo not drawn)	> 182 µM	> 182 µM	–
Cc1ccc2nc(-c3ccc(-c4nc5ccc(C)cc5o4)c(O)c3)oc2c1	> 200 µM	> 200 µM	–
CNC1(C#N)CCN(Cc2ccccc2)CC1	> 200 µM	> 200 µM	–
CC1C(=O)NC(=O)NC1=O	> 200 µM	> 200 µM	–
CC1(C)OC2OC(COC(=O)c3ccccc3)C(=O)C2O1 (stereo not drawn)	> 200 µM	13.8 µM	–
OCC12CCCC(CO)(COC1)C2O (stereo not drawn)	> 200 µM	> 200 µM	–
Cc1ccccc1-c1cc(=O)c2cc(C)c(C)c(C(=O)O)c2o1	–	–	inactive
COc1ccc2[nH]c3c(c2c1)COc1ccccc1C3=O	> 200 µM	> 200 µM	–
COc1cccc(C(=O)CC(c2ccccc2)C(C)(C)[N+](=O)[O-])c1 (stereo not drawn)	> 200 µM	95.5 µM	–
CSc1c(C#N)c(O)n(-c2ccc(C)cc2)c(=O)c1C#N	> 115 µM	102 µM	–
CCOC(=O)C1=C(O)CSC1=Nc1ccccc1	–	–	inactive
N#C/C(=C/c1cccnc1)C(=O)c1ccccc1	> 398 µM	67.6 µM	–
COC(C(O)c1ccc2c(c1)OCO2)P(=O)(c1ccccc1)c1ccccc1 (stereo not drawn)	–	–	inactive

SMILES	EC50	IC50	outcome
CC(C)OP(=O)(OC(C)C)C([CH2][Sn]([CH3])([CH3])[Cl])P(=O)(c1ccccc1)c1ccccc1 (stereo not drawn)	> 200 µM	2.88 µM	–
CCCc1cc(=O)oc2c3c(c4c(c12)OC(C)(C)C=C4)O[C@@H](C)[C@H](C)[C@H]3O	> 51.3 µM	17 µM	–
CCCCC(=O)N1C(=O)/C(=C\N(C)C)c2cc(C=O)ccc21	> 200 µM	29.5 µM	–
COc1ccc(-c2c(N3CCOCC3)oc3cc(N4CCOCC4)c(O)cc23)cc1	> 200 µM	10.2 µM	–
CN1c2ccccc2[C@@]23CCN4CC=CC5(CCC12CC5)C43 (stereo partly drawn)	> 178 µM	7.41 µM	–
CC(C)(C)C1C=C(Sc2ccccc2)C(=O)O1 (stereo not drawn)	> 120 µM	21.4 µM	–
COc1cc(C2c3cc4c(cc3OC(NCCO)C2C)OCO4)cc(OC)c1OC (stereo not drawn)	> 20 µM	0.24 µM	–
CCCCCCCCCCCCN1[C@H]2CCC[C@H]2C(O)[C@@H]2CCC[C@@H]21 (stereo partly drawn)	> 200 µM	4.9 µM	–
C/C(CN1C(=O)c2ccccc2C1=O)=N\NS(=O)(=O)c1ccc(C)cc1	> 355 µM	> 355 µM	–
CO[C@@H]1C2=CC=CC=C[C@H]2n2c(=O)n(-c3ccccc3)c(=O)n21	> 162 µM	81.3 µM	–
COC(=O)c1cc(C(c2cc(C(=O)OC)c(O)c(Br)c2C)C(Cl)(Cl)Cl)c(C)c(Br)c1O	> 200 µM	112 µM	–
CCOC(=O)c1ccc(NC(=S)Nc2ncccc2C)cc1	> 200 µM	158 µM	–
CCC1c2c(cc(=O)[nH]c2O)C(=O)N1C (stereo not drawn)	> 447 µM	> 447 µM	–
COc1ccc2c(c1)CC/C2=C\CC1(C)C(=O)CCC1=O	> 200 µM	107 µM	–
COC(=O)CC1CN(C(=O)OCc2ccccc2)C(C)(C)O1 (stereo not drawn)	> 200 µM	> 200 µM	–
CC(=O)c1ccc([Se][Se]c2ccc(C(C)=O)cc2)cc1	> 18.2 µM	3.72 µM	–
O=c1cc(-c2ccccc2)nc(/C=C(\O)c2ccncc2)n1-c1ccccc1	> 3.98 µM	> 3.98 µM	–
Cc1ccc(S(=O)(=O)NCC2CCCCC2=O)cc1 (stereo not drawn)	> 129 µM	123 µM	–
Cc1c(C(=O)C/C(=N/NC(=O)c2ccccc2)C(=O)Nc2ccc(Cl)cc2)[n+](=O)c2ccccc2n1[O-]	> 34.7 µM	20.4 µM	–
Cc1c2cccc-2c(OCCO)cc2c1[nH]c1ccccc12	> 200 µM	2.88 µM	–
S=C1CC(c2ccccc2)Sc2cc(Cl)ccc2N1 (stereo not drawn)	> 200 µM	1.26 µM	–
Nc1nc2cc([N+](=O)[O-])cnc2s1	> 479 µM	437 µM	–
COC(=O)CCCC=C(c1cc(Br)c(OC)c(C(F)(F)F)c1)c1cc(Br)c(OC)c(C(F)(F)F)c1	> 200 µM	40.7 µM	–
CC1CN(C2C=CC(=O)CC2)C(=O)NC1=O (stereo not drawn)	> 1120 µM	7.76 µM	–

SMILES	EC50	IC50	outcome
Cn1cc(NC(=O)c2cc(NC(=O)[C@@H]3CCC(N)=N3)c[nH]2)cc1C(=O)NCCC(=N)N	–	–	inactive
O=C1OC(/C=C/c2ccccc2)Sc2ccccc21 (stereo not drawn)	–	–	inactive
CC(=O)C(=Cc1ccc(C=C(C(C)=O)C(C)=O)cc1)C(C)=O	> 200 µM	0.933 µM	–
CC[N+](C)(C)C1=C([O-])C(F)(F)C1=O	> 200 µM	> 200 µM	–
CC[n+]1[b-](C(C)(C)C)n(/N=C(\C)C(C)(C)C)[b-](C(C)(C)C)[n+]1CC	> 200 µM	31.6 µM	–
COC1=NS(=O)(=O)C2(O1)c1ccccc1-c1ccccc12	> 117 µM	89.1 µM	–
COc1cc(C2SC(N)=Nc3c2c(C)nn3C(=O)Cc2ccccc2)ccc1O (stereo not drawn)	70.8 µM	> 200 µM	–
Cc1ccc(N2C(=O)C3C=CC(n4[nH]c(=O)n(Cc5ccccc5)c4=O)CC3C2=O)cc1 (stereo not drawn)	> 417 µM	> 417 µM	–
C=CCN(N=O)C(=O)ON1C(=O)CCC1=O	> 1100 µM	275 µM	–
CCOC(=O)c1nn2c(C)nnc2s1	–	–	inactive
N#Cc1ccc(Cc2ccccn2)cc1Cl	–	–	inactive
Cc1ccc(S(=O)(=O)C2=Cc3ccccc3C2(O)c2ccccc2)cc1 (stereo not drawn)	> 200 µM	21.4 µM	–
COc1ccccc1NC(=O)CC(=O)NN	> 200 µM	> 200 µM	–
CC(=O)CC(=O)ON(C)C(C)=O	> 1450 µM	> 1450 µM	–
CC/C(=N/O)c1ccc2[nH]c3c(C)cc([N+](=O)[O-])c(C)c3c2c1	> 12 µM	7.41 µM	–
COC(=O)/C(C#N)=C1\NC(=O)c2ccccc21	> 83.2 µM	> 83.2 µM	–
Oc1ccc2c(c1)CCc1c-2n(CCN2CCOCC2)c2ccc(O)cc12	> 200 µM	14.8 µM	–
Cn1c(=O)c2c3ccccc3n(C)c2n(C)c1=O	> 200 µM	> 200 µM	–
COc1ccc(C2=NC(c3ccccc3)N3C(c4ccccc4)NC(c4ccccc4)C2C3c2ccccc2)cc1 (stereo not drawn)	–	–	inactive
CC(=O)CC(=O)NC=O	> 263 µM	> 263 µM	–
CS(=O)(=O)NNS(=O)(=O)c1ccccc1	> 75.9 µM	> 75.9 µM	–
